Our source for the IC50 and viability, T/C values is PubChem BioAssay AID1963984 (Molecular Pharmacology Branch, DTP, NCI, 2024).
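Note: spheroids exposed to agents for seven days before readout.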
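Throughout, for viability, T/C: percent viability relative to DMSO vehicle control taken as 100%.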

The test system of one test is 233499-124-R-J3-PDC spheroids with HUVEC/MSC, viability. The test is described as follows: Anticancer human tumor 233499-124-R-J3-PDC patient-derived colon adenocarcinoma cell line growth inhibition [PI3K]. As to conditions: curve of first compound; second compound 0.0316 µM. The essentials: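 Tumor cells were combined with HUVEC and MSCs into spheroids, then dosed with PI3K-inhibitor combinations over half-log ranges capped near clinical Cmax or 10 microM.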
As for `C=CC(=O)N1CCN(c2nc(=O)n(-c3c(C)ccnc3C(C)C)c3nc(-c4c(O)cccc4F)c(F)cc23)C(C)C1` (configuration not stated) + Cc1nc(NC(=O)N2CCCC2C(N)=O)sc1-c1ccnc(C(C)(C)C(F)(F)F)c1, the IC50 was more than 10 µM.

As for `CC(Cn1ccc(-c2ccc(C#N)c(Cl)c2)n1)NC(=O)c1cc(C(C)O)[nH]n1` (configuration not stated) + Cc1nc(NC(=O)N2CCCC2C(N)=O)sc1-c1ccnc(C(C)(C)C(F)(F)F)c1, the IC50 is more than 10 µM.

Turning to `Cn1ncc(Cl)c1-c1cc(C(=O)NC(CN)Cc2cccc(F)c2)sc1Cl` (configuration not stated) + Cc1nc(NC(=O)N2CCCC2C(N)=O)sc1-c1ccnc(C(C)(C)C(F)(F)F)c1, the IC50 came to 5.53 µM.

For `Cn1nccc1Nc1nccc(-c2ccn(C(CO)c3ccc(Cl)c(F)c3)c(=O)c2)n1` (configuration not stated) + Cc1nc(NC(=O)N2CCCC2C(N)=O)sc1-c1ccnc(C(C)(C)C(F)(F)F)c1, the 50% inhibitory concentration (IC50) is more than 10 µM.

Still in this test, the particulars now being: curve of first compound; second compound 0.1 µM.
For the molecule `C=CC(=O)N1CCN(c2nc(=O)n(-c3c(C)ccnc3C(C)C)c3nc(-c4c(O)cccc4F)c(F)cc23)C(C)C1` (configuration not stated) + Cc1nc(NC(=O)N2CCCC2C(N)=O)sc1-c1ccnc(C(C)(C)C(F)(F)F)c1, the half-maximal inhibitory concentration (IC50) is more than 10 µM.

`CC(Cn1ccc(-c2ccc(C#N)c(Cl)c2)n1)NC(=O)c1cc(C(C)O)[nH]n1` (configuration not stated) + Cc1nc(NC(=O)N2CCCC2C(N)=O)sc1-c1ccnc(C(C)(C)C(F)(F)F)c1: the IC50 is more than 10 µM.

`Cn1ncc(Cl)c1-c1cc(C(=O)NC(CN)Cc2cccc(F)c2)sc1Cl` (configuration not stated) + Cc1nc(NC(=O)N2CCCC2C(N)=O)sc1-c1ccnc(C(C)(C)C(F)(F)F)c1: the IC50 was 3.31 µM.

For `Cn1nccc1Nc1nccc(-c2ccn(C(CO)c3ccc(Cl)c(F)c3)c(=O)c2)n1` (configuration not stated) + Cc1nc(NC(=O)N2CCCC2C(N)=O)sc1-c1ccnc(C(C)(C)C(F)(F)F)c1, the IC50 amounted to 8.61 µM.

The test is the same for the next values; noted with them: curve of first compound; second compound 0.316 µM.
On to `C=CC(=O)N1CCN(c2nc(=O)n(-c3c(C)ccnc3C(C)C)c3nc(-c4c(O)cccc4F)c(F)cc23)C(C)C1` (configuration not stated) + Cc1nc(NC(=O)N2CCCC2C(N)=O)sc1-c1ccnc(C(C)(C)C(F)(F)F)c1, for which the 50% inhibitory concentration (IC50) was more than 10 µM.

Take `CC(Cn1ccc(-c2ccc(C#N)c(Cl)c2)n1)NC(=O)c1cc(C(C)O)[nH]n1` (configuration not stated) + Cc1nc(NC(=O)N2CCCC2C(N)=O)sc1-c1ccnc(C(C)(C)C(F)(F)F)c1: the IC50 was more than 10 µM.

As to `Cn1ncc(Cl)c1-c1cc(C(=O)NC(CN)Cc2cccc(F)c2)sc1Cl` (configuration not stated) + Cc1nc(NC(=O)N2CCCC2C(N)=O)sc1-c1ccnc(C(C)(C)C(F)(F)F)c1, the IC50 turned out to be 4.03 µM.

`Cn1nccc1Nc1nccc(-c2ccn(C(CO)c3ccc(Cl)c(F)c3)c(=O)c2)n1` (configuration not stated) + Cc1nc(NC(=O)N2CCCC2C(N)=O)sc1-c1ccnc(C(C)(C)C(F)(F)F)c1: the 50% inhibitory concentration (IC50) is more than 10 µM.

The test is the same for the next values; noted with them: curve of first compound; second compound 1 µM.
For `C=CC(=O)N1CCN(c2nc(=O)n(-c3c(C)ccnc3C(C)C)c3nc(-c4c(O)cccc4F)c(F)cc23)C(C)C1` (configuration not stated) + Cc1nc(NC(=O)N2CCCC2C(N)=O)sc1-c1ccnc(C(C)(C)C(F)(F)F)c1, the IC50 was more than 10 µM.

Consider `CC(Cn1ccc(-c2ccc(C#N)c(Cl)c2)n1)NC(=O)c1cc(C(C)O)[nH]n1` (configuration not stated) + Cc1nc(NC(=O)N2CCCC2C(N)=O)sc1-c1ccnc(C(C)(C)C(F)(F)F)c1, for which the concentration for half-maximal inhibition (IC50) is more than 10 µM.

For `Cn1ncc(Cl)c1-c1cc(C(=O)NC(CN)Cc2cccc(F)c2)sc1Cl` (configuration not stated) + Cc1nc(NC(=O)N2CCCC2C(N)=O)sc1-c1ccnc(C(C)(C)C(F)(F)F)c1, the IC50 stood at 2.63 µM.

Take `Cn1nccc1Nc1nccc(-c2ccn(C(CO)c3ccc(Cl)c(F)c3)c(=O)c2)n1` (configuration not stated) + Cc1nc(NC(=O)N2CCCC2C(N)=O)sc1-c1ccnc(C(C)(C)C(F)(F)F)c1: the 50% inhibitory concentration (IC50) worked out at 3.16 µM.

Staying with this test, now noted: curve of first compound; second compound 3.16 µM.
Consider `C=CC(=O)N1CCN(c2nc(=O)n(-c3c(C)ccnc3C(C)C)c3nc(-c4c(O)cccc4F)c(F)cc23)C(C)C1` (configuration not stated) + Cc1nc(NC(=O)N2CCCC2C(N)=O)sc1-c1ccnc(C(C)(C)C(F)(F)F)c1, for which the IC50 was less than 0.0316 µM.

Take `CC(Cn1ccc(-c2ccc(C#N)c(Cl)c2)n1)NC(=O)c1cc(C(C)O)[nH]n1` (configuration not stated) + Cc1nc(NC(=O)N2CCCC2C(N)=O)sc1-c1ccnc(C(C)(C)C(F)(F)F)c1: the 50% inhibitory concentration (IC50) was 5.95 µM.

For `Cn1ncc(Cl)c1-c1cc(C(=O)NC(CN)Cc2cccc(F)c2)sc1Cl` (configuration not stated) + Cc1nc(NC(=O)N2CCCC2C(N)=O)sc1-c1ccnc(C(C)(C)C(F)(F)F)c1, the IC50 amounted to 0.558 µM.

Turning to `Cn1nccc1Nc1nccc(-c2ccn(C(CO)c3ccc(Cl)c(F)c3)c(=O)c2)n1` (configuration not stated) + Cc1nc(NC(=O)N2CCCC2C(N)=O)sc1-c1ccnc(C(C)(C)C(F)(F)F)c1, the IC50 was found to be 0.853 µM.

The same test, now with this note: curve of first compound; second compound 10 µM.
As to `C=CC(=O)N1CCN(c2nc(=O)n(-c3c(C)ccnc3C(C)C)c3nc(-c4c(O)cccc4F)c(F)cc23)C(C)C1` (configuration not stated) + Cc1nc(NC(=O)N2CCCC2C(N)=O)sc1-c1ccnc(C(C)(C)C(F)(F)F)c1, the concentration for half-maximal inhibition (IC50) is less than 0.0316 µM.

Turning to `CC(Cn1ccc(-c2ccc(C#N)c(Cl)c2)n1)NC(=O)c1cc(C(C)O)[nH]n1` (configuration not stated) + Cc1nc(NC(=O)N2CCCC2C(N)=O)sc1-c1ccnc(C(C)(C)C(F)(F)F)c1, the IC50 is less than 0.0316 µM.

For `Cn1ncc(Cl)c1-c1cc(C(=O)NC(CN)Cc2cccc(F)c2)sc1Cl` (configuration not stated) + Cc1nc(NC(=O)N2CCCC2C(N)=O)sc1-c1ccnc(C(C)(C)C(F)(F)F)c1, the IC50 is less than 0.0316 µM.

For the molecule `Cn1nccc1Nc1nccc(-c2ccn(C(CO)c3ccc(Cl)c(F)c3)c(=O)c2)n1` (configuration not stated) + Cc1nc(NC(=O)N2CCCC2C(N)=O)sc1-c1ccnc(C(C)(C)C(F)(F)F)c1, the half-inhibitory concentration (IC50) is less than 0.0316 µM.

Staying with this test, now noted: second compound 0.0316 µM; first compound 0.0316 µM; stronger effect = lower value.
On to `C=CC(=O)N1CCN(c2nc(=O)n(-c3c(C)ccnc3C(C)C)c3nc(-c4c(O)cccc4F)c(F)cc23)C(C)C1` (configuration not stated) + Cc1nc(NC(=O)N2CCCC2C(N)=O)sc1-c1ccnc(C(C)(C)C(F)(F)F)c1, for which the viability, T/C was 89.3%.

Consider `CC(Cn1ccc(-c2ccc(C#N)c(Cl)c2)n1)NC(=O)c1cc(C(C)O)[nH]n1` (configuration not stated) + Cc1nc(NC(=O)N2CCCC2C(N)=O)sc1-c1ccnc(C(C)(C)C(F)(F)F)c1, for which the viability, T/C was 88.9%.

For `Cn1ncc(Cl)c1-c1cc(C(=O)NC(CN)Cc2cccc(F)c2)sc1Cl` (configuration not stated) + Cc1nc(NC(=O)N2CCCC2C(N)=O)sc1-c1ccnc(C(C)(C)C(F)(F)F)c1, the viability, T/C is 110%.

Consider `Cn1nccc1Nc1nccc(-c2ccn(C(CO)c3ccc(Cl)c(F)c3)c(=O)c2)n1` (configuration not stated) + Cc1nc(NC(=O)N2CCCC2C(N)=O)sc1-c1ccnc(C(C)(C)C(F)(F)F)c1, for which the viability, T/C is 82.9%.

The test is the same for the next values; noted with them: second compound 0.0316 µM; first compound 0.1 µM; stronger effect = lower value.
For the molecule `C=CC(=O)N1CCN(c2nc(=O)n(-c3c(C)ccnc3C(C)C)c3nc(-c4c(O)cccc4F)c(F)cc23)C(C)C1` (configuration not stated) + Cc1nc(NC(=O)N2CCCC2C(N)=O)sc1-c1ccnc(C(C)(C)C(F)(F)F)c1, the viability, T/C is 94.8%.

As to `CC(Cn1ccc(-c2ccc(C#N)c(Cl)c2)n1)NC(=O)c1cc(C(C)O)[nH]n1` (configuration not stated) + Cc1nc(NC(=O)N2CCCC2C(N)=O)sc1-c1ccnc(C(C)(C)C(F)(F)F)c1, the viability, T/C is 81.6%.

Take `Cn1ncc(Cl)c1-c1cc(C(=O)NC(CN)Cc2cccc(F)c2)sc1Cl` (configuration not stated) + Cc1nc(NC(=O)N2CCCC2C(N)=O)sc1-c1ccnc(C(C)(C)C(F)(F)F)c1: the viability, T/C was 90.8%.

In the case of `Cn1nccc1Nc1nccc(-c2ccn(C(CO)c3ccc(Cl)c(F)c3)c(=O)c2)n1` (configuration not stated) + Cc1nc(NC(=O)N2CCCC2C(N)=O)sc1-c1ccnc(C(C)(C)C(F)(F)F)c1, the viability, T/C was 98.6%.

Staying with this test, now noted: second compound 0.0316 µM; first compound 0.316 µM; stronger effect = lower value.
As to `C=CC(=O)N1CCN(c2nc(=O)n(-c3c(C)ccnc3C(C)C)c3nc(-c4c(O)cccc4F)c(F)cc23)C(C)C1` (configuration not stated) + Cc1nc(NC(=O)N2CCCC2C(N)=O)sc1-c1ccnc(C(C)(C)C(F)(F)F)c1, the viability, T/C was 99.3%.

On to `CC(Cn1ccc(-c2ccc(C#N)c(Cl)c2)n1)NC(=O)c1cc(C(C)O)[nH]n1` (configuration not stated) + Cc1nc(NC(=O)N2CCCC2C(N)=O)sc1-c1ccnc(C(C)(C)C(F)(F)F)c1, for which the viability, T/C was 101%.

As for `Cn1ncc(Cl)c1-c1cc(C(=O)NC(CN)Cc2cccc(F)c2)sc1Cl` (configuration not stated) + Cc1nc(NC(=O)N2CCCC2C(N)=O)sc1-c1ccnc(C(C)(C)C(F)(F)F)c1, the viability, T/C was 87.1%.

On to `Cn1nccc1Nc1nccc(-c2ccn(C(CO)c3ccc(Cl)c(F)c3)c(=O)c2)n1` (configuration not stated) + Cc1nc(NC(=O)N2CCCC2C(N)=O)sc1-c1ccnc(C(C)(C)C(F)(F)F)c1, for which the viability, T/C was 73%.

The same test, now with this note: second compound 0.0316 µM; first compound 1 µM; stronger effect = lower value.
Take `C=CC(=O)N1CCN(c2nc(=O)n(-c3c(C)ccnc3C(C)C)c3nc(-c4c(O)cccc4F)c(F)cc23)C(C)C1` (configuration not stated) + Cc1nc(NC(=O)N2CCCC2C(N)=O)sc1-c1ccnc(C(C)(C)C(F)(F)F)c1: the viability, T/C was 106%.

On to `CC(Cn1ccc(-c2ccc(C#N)c(Cl)c2)n1)NC(=O)c1cc(C(C)O)[nH]n1` (configuration not stated) + Cc1nc(NC(=O)N2CCCC2C(N)=O)sc1-c1ccnc(C(C)(C)C(F)(F)F)c1, for which the viability, T/C is 97.3%.

With `Cn1ncc(Cl)c1-c1cc(C(=O)NC(CN)Cc2cccc(F)c2)sc1Cl` (configuration not stated) + Cc1nc(NC(=O)N2CCCC2C(N)=O)sc1-c1ccnc(C(C)(C)C(F)(F)F)c1, the viability, T/C is 77.2%.

Regarding `Cn1nccc1Nc1nccc(-c2ccn(C(CO)c3ccc(Cl)c(F)c3)c(=O)c2)n1` (configuration not stated) + Cc1nc(NC(=O)N2CCCC2C(N)=O)sc1-c1ccnc(C(C)(C)C(F)(F)F)c1, the viability, T/C was 91.6%.

The same test, now with this note: second compound 0.0316 µM; first compound 3.16 µM; stronger effect = lower value.
As to `C=CC(=O)N1CCN(c2nc(=O)n(-c3c(C)ccnc3C(C)C)c3nc(-c4c(O)cccc4F)c(F)cc23)C(C)C1` (configuration not stated) + Cc1nc(NC(=O)N2CCCC2C(N)=O)sc1-c1ccnc(C(C)(C)C(F)(F)F)c1, the viability, T/C is 100%.

In the case of `CC(Cn1ccc(-c2ccc(C#N)c(Cl)c2)n1)NC(=O)c1cc(C(C)O)[nH]n1` (configuration not stated) + Cc1nc(NC(=O)N2CCCC2C(N)=O)sc1-c1ccnc(C(C)(C)C(F)(F)F)c1, the viability, T/C is 95.6%.
